These results are taken from publication PMC5437225, “Picomolar, selective, and subtype-specific small-molecule inhibition of TRPC1/4/5 channels” (The Journal of Biological Chemistry, 2017).

The structures appear in SMILES notation.

Experiment [1] concerns the target T1, TRPC5 (Homo sapiens, UniProt Q9UL62).
T1 construct: homomer
T1 sequence (Q9UL62 1-973): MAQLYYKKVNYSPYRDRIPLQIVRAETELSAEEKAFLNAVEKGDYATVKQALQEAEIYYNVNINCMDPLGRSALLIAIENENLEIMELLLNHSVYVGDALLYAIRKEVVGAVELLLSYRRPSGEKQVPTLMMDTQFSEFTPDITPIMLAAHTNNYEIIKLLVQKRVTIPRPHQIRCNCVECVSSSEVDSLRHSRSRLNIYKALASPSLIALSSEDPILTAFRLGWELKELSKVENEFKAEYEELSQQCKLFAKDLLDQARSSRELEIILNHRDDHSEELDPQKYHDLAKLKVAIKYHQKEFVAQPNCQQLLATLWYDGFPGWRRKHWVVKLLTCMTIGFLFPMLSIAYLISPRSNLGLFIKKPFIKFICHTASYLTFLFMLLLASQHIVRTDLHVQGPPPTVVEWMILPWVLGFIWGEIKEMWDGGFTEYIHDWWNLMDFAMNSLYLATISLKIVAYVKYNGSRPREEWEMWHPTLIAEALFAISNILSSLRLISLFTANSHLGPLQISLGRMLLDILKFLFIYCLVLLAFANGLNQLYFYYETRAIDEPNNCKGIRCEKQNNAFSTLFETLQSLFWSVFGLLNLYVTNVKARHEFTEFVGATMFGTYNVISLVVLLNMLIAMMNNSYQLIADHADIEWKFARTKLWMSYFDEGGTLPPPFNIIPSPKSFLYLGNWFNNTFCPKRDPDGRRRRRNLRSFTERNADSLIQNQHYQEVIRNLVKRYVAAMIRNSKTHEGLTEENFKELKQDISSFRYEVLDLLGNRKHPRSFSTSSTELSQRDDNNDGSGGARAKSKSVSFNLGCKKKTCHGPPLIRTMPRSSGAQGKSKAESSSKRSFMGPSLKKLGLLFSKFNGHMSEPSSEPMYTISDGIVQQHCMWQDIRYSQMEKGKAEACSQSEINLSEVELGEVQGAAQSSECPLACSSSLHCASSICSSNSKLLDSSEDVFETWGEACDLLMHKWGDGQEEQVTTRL
Kind of experiment: fura-2 Ca2+ entry, FlexStation 96-well. It counts as cell-based. The following applies: activated by 10 nM (-)-englerin A; pH 7.4; room temperature; 30 min preincubation; read-out: C31 IC50. The source says:
fura-2 Ca2+ entry, FlexStation 96-well on TRPC5

Experiment [2] has as its target T2, TRPC5-TRPC1 concatemer (Homo sapiens, UniProt P48995+Q9UL62).
T2 construct: concatemer of TRPC5 with TRPC1
The experiment in a line: fura-2 Ca2+ entry, FlexStation 96-well. The following applies: read-out: C31 IC50. The format is cell-based. The text has this:
fura-2 Ca2+ entry, FlexStation 96-well on TRPC5-TRPC1 concatemer

T2 sequence (P48995 whole entry, one chain of several): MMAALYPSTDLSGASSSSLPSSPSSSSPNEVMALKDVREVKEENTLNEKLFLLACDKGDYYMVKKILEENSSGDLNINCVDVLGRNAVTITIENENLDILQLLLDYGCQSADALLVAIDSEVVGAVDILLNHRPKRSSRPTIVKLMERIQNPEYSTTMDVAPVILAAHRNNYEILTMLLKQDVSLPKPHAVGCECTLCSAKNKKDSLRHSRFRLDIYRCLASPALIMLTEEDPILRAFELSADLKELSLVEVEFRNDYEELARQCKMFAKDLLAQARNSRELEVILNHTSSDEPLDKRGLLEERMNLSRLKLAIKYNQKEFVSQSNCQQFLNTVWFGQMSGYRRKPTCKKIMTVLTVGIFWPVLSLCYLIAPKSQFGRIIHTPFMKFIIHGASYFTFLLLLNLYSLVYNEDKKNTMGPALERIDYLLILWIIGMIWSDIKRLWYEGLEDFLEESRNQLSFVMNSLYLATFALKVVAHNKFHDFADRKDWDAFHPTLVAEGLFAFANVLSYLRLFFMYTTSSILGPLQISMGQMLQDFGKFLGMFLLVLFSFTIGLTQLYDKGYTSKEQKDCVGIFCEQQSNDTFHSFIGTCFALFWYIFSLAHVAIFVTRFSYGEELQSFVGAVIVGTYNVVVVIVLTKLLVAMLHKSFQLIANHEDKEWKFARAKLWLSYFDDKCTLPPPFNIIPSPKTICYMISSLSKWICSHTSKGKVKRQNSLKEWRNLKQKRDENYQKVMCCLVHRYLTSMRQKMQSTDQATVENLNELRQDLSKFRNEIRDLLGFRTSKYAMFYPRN

As usually defined, the IC50 is the concentration needed to halve the response being measured. On to `Cn1c(=O)n(CCCO)c(=O)c2c1nc(Oc1cccc(OC(F)(F)F)c1)n2Cc1ccc(Cl)cc1` [compound 31, C31], for which the results for the 50% inhibitory concentration (IC50) in experiment [1] and in experiment [2] were 1.3 nM and 0.199 nM, respectively.
